Assay results taken from PubChem BioAssay AID2060904 (Molecular Pharmacology Branch, DTP, NCI, 2025).

System: 349418-098-R-PDC complex spheroid viability
Test: Anticancer human tumor 349418-098-R-PDC patient-derived lung adenocarcinoma cell line growth inhibition [RAS]
Conditions: for IC50: curve of first compound; for viability, T/C: stronger effect = lower value
In short: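 Multi-cell-type spheroids: tumor cells plus HUVEC endothelial cells and mesenchymal stem cells. RAS-pathway inhibitors were combined with targeted agents, each dosed in half-log steps down from clinical Cmax, or from 10 microM when Cmax was unknown.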

[1] = second compound 0.000949 µM, first compound 0.0316 µM
[2] = second compound 0.000949 µM, first compound 0.1 µM
[3] = second compound 0.000949 µM, first compound 0.316 µM
[4] = second compound 0.000949 µM, first compound 1 µM
[5] = second compound 0.000949 µM, first compound 3.16 µM
[6] = second compound 0.000949 µM, first compound 10 µM
[7] = second compound 0.003 µM, first compound 0.0316 µM
[8] = second compound 0.003 µM, first compound 0.1 µM
[9] = second compound 0.003 µM, first compound 0.316 µM
[10] = second compound 0.003 µM, first compound 1 µM
[11] = second compound 0.003 µM, first compound 3.16 µM
[12] = second compound 0.003 µM, first compound 10 µM
[13] = second compound 0.00949 µM, first compound 0.0316 µM
[14] = second compound 0.00949 µM, first compound 0.1 µM
[15] = second compound 0.00949 µM, first compound 0.316 µM
[16] = second compound 0.00949 µM, first compound 1 µM
[17] = second compound 0.00949 µM, first compound 3.16 µM
[18] = second compound 0.00949 µM, first compound 10 µM
[19] = second compound 0.03 µM, first compound 0.0316 µM
[20] = second compound 0.03 µM, first compound 0.1 µM
[21] = second compound 0.03 µM, first compound 0.316 µM
[22] = second compound 0.03 µM, first compound 1 µM
[23] = second compound 0.03 µM, first compound 3.16 µM
[24] = second compound 0.03 µM, first compound 10 µM
[25] = second compound 0.0949 µM, first compound 0.0316 µM
[26] = second compound 0.0949 µM, first compound 0.1 µM
[27] = second compound 0.0949 µM, first compound 0.316 µM
[28] = second compound 0.0949 µM, first compound 1 µM
[29] = second compound 0.0949 µM, first compound 3.16 µM
[30] = second compound 0.0949 µM, first compound 10 µM
[31] = second compound 0.3 µM, first compound 0.0316 µM
[32] = second compound 0.3 µM, first compound 0.1 µM
[33] = second compound 0.3 µM, first compound 0.316 µM
[34] = second compound 0.3 µM, first compound 1 µM
[35] = second compound 0.3 µM, first compound 3.16 µM
[36] = second compound 0.3 µM, first compound 10 µM
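Further: spheroids exposed to compound for seven days before viability readout.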

## CC1(O)CCCC1n1c(=O)c(C(F)F)cc2cnc(NC3CCN(S(C)(=O)=O)CC3)nc21 (centres undefined) + CCn1c(-c2cc(N3CCN(C)CC3)cnc2C(C)OC)c2c3cc(ccc31)-c1csc(n1)CC(NC(=O)C1CC1C)C(=O)N1CCCC(N1)C(=O)OCC(C)(C)C2
Second compound 0.000949 µM
  IC50: 63.6 nM
Second compound 0.003 µM
  IC50: 73.1 nM
Second compound 0.00949 µM
  IC50: 56.9 nM
Second compound 0.03 µM
  IC50: 84.3 nM
Second compound 0.0949 µM
  IC50: 83.6 nM
Second compound 0.3 µM
  IC50: 78.1 nM
[1]
  viability, T/C: 71.3%
[2]
  viability, T/C: 34.3%
[3]
  viability, T/C: 21.8%
[4]
  viability, T/C: 21.3%
[5]
  viability, T/C: 22.5%
[6]
  viability, T/C: 3.27%
[7]
  viability, T/C: 73.1%
[8]
  viability, T/C: 38.1%
[9]
  viability, T/C: 25.3%
[10]
  viability, T/C: 20.1%
[11]
  viability, T/C: 21.5%
[12]
  viability, T/C: 2.54%
[13]
  viability, T/C: 60.6%
[14]
  viability, T/C: 41.4%
[15]
  viability, T/C: 22%
[16]
  viability, T/C: 23%
[17]
  viability, T/C: 19.6%
[18]
  viability, T/C: 2.74%
[19]
  viability, T/C: 70.8%
[20]
  viability, T/C: 48.1%
[21]
  viability, T/C: 23.6%
[22]
  viability, T/C: 22.9%
[23]
  viability, T/C: 19.2%
[24]
  viability, T/C: 2.55%
[25]
  viability, T/C: 83.8%
[26]
  viability, T/C: 42%
[27]
  viability, T/C: 23.3%
[28]
  viability, T/C: 23.9%
[29]
  viability, T/C: 21.4%
[30]
  viability, T/C: 2.75%
[31]
  viability, T/C: 78.2%
[32]
  viability, T/C: 40.7%
[33]
  viability, T/C: 22.5%
[34]
  viability, T/C: 22.3%
[35]
  viability, T/C: 20.5%
[36]
  viability, T/C: 2.63%

## CCC(CC)c1cc(NC2CCC(N)C2)n2nccc2n1 (centres undefined) + CCn1c(-c2cc(N3CCN(C)CC3)cnc2C(C)OC)c2c3cc(ccc31)-c1csc(n1)CC(NC(=O)C1CC1C)C(=O)N1CCCC(N1)C(=O)OCC(C)(C)C2
Second compound 0.000949 µM
  IC50: 825 nM
Second compound 0.003 µM
  IC50: 1050 nM
Second compound 0.00949 µM
  IC50: 1140 nM
Second compound 0.03 µM
  IC50: 842 nM
Second compound 0.0949 µM
  IC50: 985 nM
Second compound 0.3 µM
  IC50: 986 nM
[1]
  viability, T/C: 96.1%
[2]
  viability, T/C: 91.7%
[3]
  viability, T/C: 98.7%
[4]
  viability, T/C: 40.8%
[5]
  viability, T/C: 2.44%
[6]
  viability, T/C: 2.65%
[7]
  viability, T/C: 103%
[8]
  viability, T/C: 106%
[9]
  viability, T/C: 96.5%
[10]
  viability, T/C: 52.7%
[11]
  viability, T/C: 2.69%
[12]
  viability, T/C: 2.78%
[13]
  viability, T/C: 94.8%
[14]
  viability, T/C: 94.3%
[15]
  viability, T/C: 90%
[16]
  viability, T/C: 56.3%
[17]
  viability, T/C: 2.15%
[18]
  viability, T/C: 2.27%
[19]
  viability, T/C: 107%
[20]
  viability, T/C: 103%
[21]
  viability, T/C: 94.1%
[22]
  viability, T/C: 42.8%
[23]
  viability, T/C: 2.26%
[24]
  viability, T/C: 2.15%
[25]
  viability, T/C: 119%
[26]
  viability, T/C: 103%
[27]
  viability, T/C: 99.8%
[28]
  viability, T/C: 50.7%
[29]
  viability, T/C: 2.85%
[30]
  viability, T/C: 2.9%
[31]
  viability, T/C: 116%
[32]
  viability, T/C: 107%
[33]
  viability, T/C: 108%
[34]
  viability, T/C: 49.4%
[35]
  viability, T/C: 2.38%
[36]
  viability, T/C: 2.44%
